In brackets after ≈: the same amount, converted by molar mass. Bridge positions count the residues as written; N and C are the ends. Peptide text beside a SMILES is read from it.
How the values were obtained:
[1] = test system: P. aeruginosa (CF) AMT0060; experiment: microbe, parasite or virus in culture; assay type: cell-based, Pseudomonas aeruginosa; details: CF) AMT0060
Protocol: (§1) To determine the antimicrobial activity of the new antimicrobial peptides, HG2 and HG4, their minimum inhibitory concentrations (MICs) were determined by broth microdilution method[51] in cation adjusted Mueller Hinton broth (MHB) following the International Organisation for Standardisation (ISO) 20776-1 standard for MIC testing using a final bacterial inoculum of 5 × 10^5 CFU/ml[52]. […] The peptides dissolved in sterile distilled water were added to bacteria culture and incubated overnight at appropriate conditions. The MICs of the peptides and comparator antibiotics were recorded after 18–24 h. The minimum bactericidal concentrations (MBCs) were also determined and were taken as the lowest concentration of the antimicrobial that prevented the growth of bacterial cells after the subculture of cells (from MIC treatment) onto antibiotic-free media.

P. aeruginosa (CF) C3719 = experiment: microbe, parasite or virus in culture; assay type: cell-based, Pseudomonas aeruginosa; details: CF) C3719
Protocol: as §1

[2] = test system: P. aeruginosa (CF) LES400; experiment: microbe, parasite or virus in culture; assay type: cell-based, Pseudomonas aeruginosa; details: CF) LES400
Protocol: as §1

P. aeruginosa PA01 = experiment: microbe, parasite or virus in culture; assay type: cell-based, Pseudomonas aeruginosa
Protocol: as §1

S. aureus ATCC 33591 = experiment: microbe, parasite or virus in culture; assay type: cell-based, Staphylococcus aureus; details: ATCC 33591
Protocol: as §1

S. aureus EMRSA-15 = experiment: microbe, parasite or virus in culture; assay type: cell-based, Staphylococcus aureus; details: EMRSA-15
Protocol: as §1

[3] = test system: S. aureus USA300 BAA-1717; experiment: microbe, parasite or virus in culture; assay type: cell-based, Staphylococcus aureus; details: USA300
Protocol: as §1

MRSA USA300 cells = experiment: Serial passage / resistance assay; assay type: cell-based, Staphylococcus aureus; details: for fold increase in MIC during serial passage: sub-MIC exposure over 20 days, MRSA USA300; for resistant mutants after serial passage: sub-lethal doses over a period of 20 days
Protocol: In vitro evaluation of the potential for MRSA USA3000 cells to develop resistance to HG2 and HG4 was performed as follows. […] Cultures from the highest concentration that supported growth were diluted 1: 1000 in MHB and used to provide the inoculum for the next passage day. This process was performed for a total duration of 20 days. Any putative mutants recovered were isolated via streak dilution for three generations on MHA, prior to further characterisation.

[4] = test system: LPS-driven NF-kB activation, eLUCidate Raw 264.7 NF-kB reporter cell line; experiment: Anti-inflammatory activity, NF-kB luciferase reporter; assay type: cell-based, murine; details: 10 ng/ml LPS from E. coli, 6 h
Protocol: (§2) The inhibitory activity of HG2, HG4 and comparator compounds against LPS and LTA was assessed using eLUCidate™ Raw 264.7 NF-kB reporter cell line (AMSBIO) as previously described. The eLUCidate NF-kB reporter cell line is a stably transfected Raw 264.7 cell line which expresses the Renilla luciferase reporter gene under the transcriptional control of the NF-kB response element, a key transcription factor involved in immune and inflammatory responses. This reporter cell line has been used to measure the induction of various toll-like receptors (TLR) by ligands, including LPS and LTA, therefore providing an effective way to evaluate inhibitors of their activations. Briefly, cells were grown and maintained following the manufacturer’s instructions in Dulbecco’s modified essential medium (DMEM) supplemented with 10% fetal calf serum (FCS), 1% L-glutamine, 1% antibiotics (Invitrogen) and containing 3 µg/ml of puromycin (Sigma-Aldrich, UK). To test the inhibitory activity of HG2 and HG4 on LPS or LTA-driven NF-kB activation, eLUCidate™ Raw 264.7 cells grown on 75 cm^2 flasks were detached using trypsin-EDTA solution (Thermofisher, UK) and seeded into 96-well cell culture plates (Greiner Bio-one, UK) at ~25,000 cells per well (counted using Mallasez’s chamber). The next day, wells were emptied, and cells were exposed to optimal concentrations of LPS or LTA determined from preliminary experiments, (i.e. 10 ng/ml of LPS from E. coli or 10 µg/ml of LTA from S. aureus (Invivogen, UK)) in the presence of increasing concentrations of HG2 or HG4 (from 0 to 500 µg/ml, serial 1:2 dilutions). Pyrrolidine dithiocarbamate (PDTC, 100 µM) and polymyxin B (PMB, 100 µM) (Sigma-Aldrich, UK) were used as positive controls based on their well-known activity as anti-inflammatory molecules and blockers/neutralisers of LPS and LTA, respectively. Importantly, all steps were performed using non-pyrogenic plastics and RNase/DNase molecular biology tips to limit the risk of the presence of a trace of LPS/LTA. After 6 h incubation at 37 °C and 5% CO2, wells were emptied, and the cells were treated with 70 µl of ice-cold PBS containing 1% Triton X-100. After 10 min incubation on ice under orbital shaking at 200 rpm, 50 µL of cell lysates were collected and transferred into white 96-well luminescence plates (Dominique Dutscher) already containing 100 µL of Renilla luciferase substrate (Yelen, France). Luminescence signals of the wells were immediately measured using a microplate reader (Biotek Synergy Mx, UK). The luminescence values were expressed as a percentage of control inflammation corresponding to values obtained after treatment with LPS or LTA in the absence of an inhibitor. The IC50 values of PDTC, PMB, HG2 or HG4 on LPS or LTA-mediated inflammation (i.e. the concentration of molecule causing a reduction of 50% of the luciferase’s induction caused by LPS or LTA) were calculated using GraphPad® Prism 7 software.

[5] = test system: LTA-driven NF-kB activation, eLUCidate Raw 264.7 NF-kB reporter cell line; experiment: as above; assay type: cell-based, murine; details: 10 µg/ml LTA from S. aureus, 6 h
Protocol: as §2

SMILES: CC[C@H](C)[C@H](NC(=O)[C@H](CC(C)C)NC(=O)[C@H](CC(C)C)NC(=O)[C@H](CC(C)C)NC(=O)[C@H](CCCCN)NC(=O)[C@H](CCCCN)NC(=O)[C@@H](N)CCSC)C(=O)N[C@@H](CC(C)C)C(=O)N[C@@H](Cc1ccccc1)C(=O)N[C@H]1CSSC[C@@H](C(=O)N[C@@H](CCCCN)C(=O)N[C@@H](CCCCN)C(=O)N[C@@H](C)C(=O)N2CCC[C@H]2C(N)=O)NC(=O)CNC(=O)[C@H](C)NC(=O)[C@H](CC(C)C)NC(=O)[C@H](C)NC(=O)[C@H](CC(C)C)NC(=O)[C@H](C)NC(=O)[C@H](CC(C)C)NC1=O [HG2] (H-MKKLLLILFCLALALAGCKKAP-NH2; disulfide 10-18; N-terminus assumed)
- MIC [1]: 256 µg/mL (≈ 109 µM)
- MIC (P. aeruginosa (CF) C3719): 64 µg/mL (≈ 27.2 µM)
- MIC [2]: 64 µg/mL (≈ 27.2 µM)
- MIC (P. aeruginosa PA01): >512 µg/mL
- MIC (S. aureus ATCC 33591): 64 µg/mL (≈ 27.2 µM)
- MIC (S. aureus EMRSA-15): 32 µg/mL (≈ 13.6 µM)
- MIC [3]: 16 µg/mL (≈ 6.79 µM)
- fold increase in MIC during serial passage (MRSA USA300 cells): 1–2 fold
- resistant mutants after serial passage (MRSA USA300 cells): did not produce resistant mutants
- IC50, LPS-mediated inflammation [4]: 73.99 ± 3.40 µg/mL
- IC50, LTA-mediated inflammation [5]: 91.49 ± 6.03 µg/mL

SMILES: CC[C@H](C)[C@H](NC(=O)[C@H](CC(C)C)NC(=O)[C@H](CC(C)C)NC(=O)[C@H](C)NC(=O)CNC(=O)CNC(=O)[C@@H](NC(=O)[C@@H](NC(=O)[C@H](CC(C)C)NC(=O)[C@H](C)NC(=O)[C@H](CC(C)C)NC(=O)CNC(=O)[C@H](CC(C)C)NC(=O)[C@@H](N)C(C)C)[C@@H](C)CC)C(C)C)C(=O)N[C@@H](CCCCN)C(=O)N[C@@H](CCCCN)C(=O)N[C@@H](CCCCN)C(=O)N[C@@H](CCC(N)=O)C(=O)N[C@@H](C)C(=O)N[C@@H](CCCCN)C(=O)N[C@@H](CO)C(N)=O [HG4] (H-VLGLALIVGGALLIKKKQAKS-NH2; N-terminus and C-terminus assumed)
- MIC [1]: 256 µg/mL (≈ 121 µM)
- MIC (P. aeruginosa (CF) C3719): 128 µg/mL (≈ 60.4 µM)
- MIC [2]: 128 µg/mL (≈ 60.4 µM)
- MIC (P. aeruginosa PA01): >512 µg/mL
- MIC (S. aureus ATCC 33591): 32 µg/mL (≈ 15.1 µM)
- MIC (S. aureus EMRSA-15): 32 µg/mL (≈ 15.1 µM)
- MIC [3]: 32 µg/mL (≈ 15.1 µM)
- fold increase in MIC during serial passage (MRSA USA300 cells): 1–2 fold
- resistant mutants after serial passage (MRSA USA300 cells): did not produce resistant mutants
- IC50, LPS-mediated inflammation [4]: 113.80 ± 5.00 µg/mL
- IC50, LTA-mediated inflammation [5]: 26.45 ± 3.11 µg/mL

Source: publication PMC9283466, “In silico identification of two peptides with antibacterial activity against multidrug-resistant Staphylococcus aureus” (NPJ Biofilms and Microbiomes, 2022)
